Experimental data reported in US6468537B1, “Localization of major peptide autoepitopes for nucleosome specific T cells of systemic lupus erythematosus” (The Board of Trustees of Northwestern University, priority 1999, dated 2002).

What was measured:
[1] = test system: pathogenic Th clones from SNF1 mice; experiment: Stimulation of nucleosome-specific pathogenic Th clones from SNF1 mice by eluted/synthetic peptides; assay type: cell-based, mouse; settings: A20 or splenic B+Mφ as APC
Description: Fresh splenic, CD4^+ T cells (5×10^5/well) were co-cultured in triplicate wells at an initial concentration of 5×10^5 cells per well, with 10^6 cells per well of either irradiated B+Mφ or mitomycin-C treated A20 APC. Varying concentrations of either control or test peptides were added and the cultures were adjusted to 200 microliters final volume of HL-1 serum-free medium (Hycor Biomedical Inc., Irvine, Calif.) cultures were incubated for 96 hours in flat bottom 96-well plates, and at 18 hours prior to harvesting the cells, 1 microcurie of 3H-Thymidine was added to each well. The incorporated radioactivity was measured by scintillation counting. The Stimulation Index (SI) was calculated by dividing the mean counts per minute (cpm) incorporated in co-cultures of T cells and APC with test peptide by the mean cpm incorporated in control peptide co-cultures. In the case of cytokine assays, experiments were carried out as described for the proliferation assays except that the culture supernatants were removed from duplicate co-culture wells after 24-46 hours of incubation and cytokine assays were performed.
An aliquot of 50 microliters from each HPLC fraction was assayed for stimulating ability as described above. Four characterized Th clones were used as indicators of cytokine secretion (IL-2 and/or IL-4) in response to the peptide fractions, using A20 or splenic B+Mψ as APCs (Adams, et al., 1991, Proc. Natl. Acad. Sci. USA 88:11271-11275; Shi, et al., 1998, J. Exp. Med. 187:367-378). […] Only two out of one hundred fractions tested were able to stimulate Th cell clones. […] The latter was further separated as described, and tested for active fractions of HPLC purified peptides.. Three naturally processed and presented, stimulatory epitopes were identified using these procedures. The sequences of the peptides are as follows: SQKEEEEGAQREKE (EP-1, SEQ ID NO: 23); DWMEEEHGAQREKE (EP-2, SEQ ID NO: 24); and […] (EP-3, or H522-42, SEQ ID NO: 25). The first two peptides were homologous to sequences in a transcription factor, BRN-3, which is identical in chicken, mice and humans (GenBank). […] EP-1 is highly homologous to EP-2, but it also matched a sequence in cytomegalovirus envelope protein at aa position 57-70. Most likely these peptides are derived from some transcription factor in the chromatin that was incubated with the APC. The third sequence (EP-3) was derived from histone H5 (aa position 22-42) in chicken nucleosome, which is homologous to histone H1 sequence of mice and humans at amino acid position 22-42 ([…], SEQ ID NO:26). […] Therefore, the mouse H122-42 is the autoantigenic peptide in mice and is also referred to herein as EP-3. Nested sequences and unrelated sequences that were obtained in the active fractions from the eluates were also synthesized and re-tested.

[2] = test system: SNF1 mice; experiment: Acceleration of SLE-associated nephritis by immunization with eluted peptides in adjuvant; assay type: in vivo, mouse; settings: for onset/rate of disease relative to control group (CFA alone or OVA peptide in CFA): immunization from 12 weeks
Text: The animals received three more injections at two weeks interval with 50 micrograms of either an eluted peptide or the control peptide absorbed on alum (Pierce Chemical Co., Rockford, Ill.).

[3] = test system: SNF1 mice; experiment: Short-term tolerance experiments: grading of lupus nephritis at sacrifice; assay type: in vivo, mouse; settings: short-term batch, at sacrifice two weeks after last injection
Description: Short-term experiments were conducted to test the early immunological consequences of tolerance therapy. Twelve week old SNF1 mice were injected once a week for four weeks with either a saline solution or a peptide solution comprising saline and 300 micrograms of one of the above described peptides. Mice were sacrificed at two weeks after the last injection. Presence of autoimmune T and B cells was analyzed and renal lesions were graded.

[4] = test system: SNF1 mice; experiment: Chronic therapy of established glomerulonephritis with nucleosomal peptides; assay type: in vivo, mouse
Description: Six mice per group were injected intraperitoneally once each month with either a saline solution or a peptide solution comprising saline and 300 micrograms of one of the identified peptides. The endpoint of these experiments was the development of moribund state due to renal failure.

[5] = test system: SNF1 mice; experiment: IgG anti-nuclear autoantibody and total IgG levels in sera of peptide-injected mice (ELISA); assay type: in vivo, mouse; settings: sera 1:400
Description: (§1) Long-term experiments used 12 week-old, autoimmune, but pre-nephritic SNF1 female mice. Nine mice per peptide test group were injected intravenously with either a saline (solution) or a peptide solution comprising saline and 300 micrograms of one of H2B10-33, H416-39, and H471-94. Each mouse received three subsequent injections of either the saline solution or one of the peptide solutions at two-week intervals. The mice were monitored weekly for proteinuria using an Albustix kit (VWR Scientific, Chicago, Ill.), and sacrificed upon the development of persistent proteinuria. Persistent protenuria was identified as an amount of protein in urine that is equivalent to or greater than 300 milligrams per deciliter, and is a primary indication of severe kidney disease and damage associated with nephritis. Sera were collected from each mouse and the IgG anti-nuclear autoantibodies determined. Blood urea nitrogen (BUN) was measured by Azostix (Miles, Ekhart, Ind.). Immune complex deposition and glomerulonephritis in the kidney were detected by staining with Hematoxylin and Eosin and anti-mouse Ig. These procedures were carried out as previously described (Mohan et al., 1993, J. Exp. Med. 177:1367; Mohan et al., 1995, J. Immunol. 154:1470; Eastcott et al., 1983, J. Immunol. 131:2232; Adams et al., 1991, Proc. Natl. Acad. Sci. USA 88:11271; Kalled et al., 1998, J. Immunol. 160:2158; Gaynor et al., 1997, Proc. Natl. Acad. Sci. USA 94:1955).
(§2) Levels of IgG class autoantibodies specific for single-stranded DNA (ssDNA), double-stranded DNA (dsDNA), histones, and nucleosomes (i.e. histone-DNA complexes), in culture supernatants or serum, were estimated using an enzyme-linked immunosorbent assay (ELISA). Anti-DNA mAbs 564 and 205 were used to generate standard curves as previously described (Mohan et al., 1993, J. Exp. Med. 177:1367; Kaliyaperumal et al., 1996, J. Exp. Med. 183:2459; Mohan et al., 1995, J. Immunol. 154:1470; Adams et al., 1991, Proc. Natl. Acad. Sci. USA 88:11271). Sera were diluted 1:400 and heat-inactivated before use according to standard procedures. Sera from normal SWR mice were used as the negative control. Total polyclonal IgG levels were also measured by ELISA as previously described (Mohan et al., 1993, J. Exp. Med. 177:1367; Mohan et al., 1995, J. Immunol. 154:1470; Adams et al., 1991, Proc. Natl. Acad. Sci. USA 88:11271).

[6] = test system: CD4+ T cells; experiment: Helper assay: CD4+ T cells from peptide-injected mice co-cultured with B cells from unmanipulated SNF1 mice; assay type: cell-based, mouse
Text: as §2
T-cells from peptide-treated mice used in the short-term experiments were co-cultured with splenic B cells from unmanipulated mice. Conversely, T cells from unmanipulated SNF1 mice (i.e. control mice) were co-cultured with splenic B cells from tolerized (i.e. peptide-injected) mice. Each of the cell types was seeded in 24-well plates at an initial concentration of 2.5×10^6 cells per well. Cultures were maintained for 7 days, as previously described (Datta et al., 1987, J. Exp. Med. 165:1252; Sainis and Datta, 1988, J. Immunol. 140:2215). B cells from unmanipulated or tolerized animals were cultured alone to measure baseline autoantibody production. Culture supernatants were collected, freeze-thawed, and assayed by ELISA for antibodies against ssDNA, dsDNA, histones and nucleosomes. For studies involving stimulation of B cells by soluble CD40 ligand, CD40L-CD8 fusion protein (Wortis et al., 1995, Proc. Natl. Acad. Sci. USA 92:3348) was added to either the co-culture wells or the wells with B cells alone and maintained in the medium for the entire 7-day culture period.

[7] = test system: SNF1 mice; experiment: Brief therapy with nucleosomal histone peptides (long-term experiments): incidence of severe nephritis; assay type: in vivo, mouse
Description: as §1

[8] = test system: CD4+ T cell clone DD2; experiment: IL-2 production by lupus Th cell clone DD2 in response to histone peptides; assay type: cell-based, human; settings: for stimulation of DD2: autologous EBV-B cells pulsed with peptide as APC
Description: Short-term T cell lines were rapidly thawed from liquid nitrogen and expanded in the presence of plate-bound anti-CD3 mAb, anti-CD28 mAb, and rIL-2 (20 units per milliliter). The expanded cells were transferred to fresh culture wells and rested by incubating in fresh medium for 10 to 14 days. For stimulation assays, 96 well plates were coated with 2 micrograms per milliliter of goat anti-mouse IgG antibodies overnight at 37° C. After washing the plates twice with Dulbecco's phosphate-buffered saline (dPBS), autologous and previously irradiated (3,000 rad) EBV-B cells (APC) were first added to each well at a concentration of 1×10^5 cells per well. The cells (APC) were cultured together with either a core histone peptide or a control peptide for 6 hours in HL-1 serum free medium (Bio Whittaker, Maryland). This procedure was followed by the addition to each well of CD4^+ T cells from the short-term lines at a concentration of 1×10^5 cells per well, and the addition of 0.5 micrograms per milliliter of a mouse monoclonal antibody (mAb) to human CD28. The final volume of the cultures was 200 microliters per well. Cells were co-cultured for 24 hours at 37° C. One-half the volume of supernatant was collected from each well for ELISA analysis of interleukin levels. Fresh medium (100 microliters) was added to cells, and the cells were incubated an additional 48 hours. [^3H] thymidine was added, and the cultures were incubated an additional 18 hours. Incorporated radioactivity was measured to quantitate T cell proliferation as described previously (Desai-Mehta et al., 1995, J. Clin. Invest. 95:53 1-541). HLA class II dependence of antigen-specific responses by the CD4^+ T cells was determined by adding to the co-cultures a blocking antibody from a panel of mAb to HLA class II molecules, as described previously (Desai-Mehta et al., 1995, J. Clin. Invest. 95:53 1-541). […]
IL-2 secreted by CD4^+ T cells in short term experiments was measured using an ELISA. […]

[9] = test system: short-term CD4+ T cell lines; experiment: IL-2 production by short-term CD4+ T cell lines in response to histone peptides (pepscan); assay type: cell-based, human
Description: Short-term T cell lines were rapidly thawed from liquid nitrogen and expanded in the presence of plate-bound anti-CD3 mAb, anti-CD28 mAb, and rIL-2 (20 units per milliliter). The expanded cells were transferred to fresh culture wells and rested by incubating in fresh medium for 10 to 14 days. For stimulation assays, 96 well plates were coated with 2 micrograms per milliliter of goat anti-mouse IgG antibodies overnight at 37° C. After washing the plates twice with Dulbecco's phosphate-buffered saline (dPBS), autologous and previously irradiated (3,000 rad) EBV-B cells (APC) were first added to each well at a concentration of 1×10^5 cells per well. The cells (APC) were cultured together with either a core histone peptide or a control peptide for 6 hours in HL-1 serum free medium (Bio Whittaker, Maryland). This procedure was followed by the addition to each well of CD4^+ T cells from the short-term lines at a concentration of 1×10^5 cells per well, and the addition of 0.5 micrograms per milliliter of a mouse monoclonal antibody (mAb) to human CD28. The final volume of the cultures was 200 microliters per well. Cells were co-cultured for 24 hours at 37° C. One-half the volume of supernatant was collected from each well for ELISA analysis of interleukin levels. Fresh medium (100 microliters) was added to cells, and the cells were incubated an additional 48 hours. [^3H] thymidine was added, and the cultures were incubated an additional 18 hours. Incorporated radioactivity was measured to quantitate T cell proliferation as described previously (Desai-Mehta et al., 1995, J. Clin. Invest. 95:53 1-541). HLA class II dependence of antigen-specific responses by the CD4^+ T cells was determined by adding to the co-cultures a blocking antibody from a panel of mAb to HLA class II molecules, as described previously (Desai-Mehta et al., 1995, J. Clin. Invest. 95:53 1-541).
IL-2 secreted by CD4^+ T cells in short term experiments was measured using an ELISA. Capture and biotinylated antibody pairs directed at human IL-2 and standards for use therein were purchased from PharMingen. […]

DWMEEEHGAQREKE (DWMEEEEGAQREKE; Histone fragment) [EP-2]
stimulation of pathogenic Th clones [1]: stimulatory
mice developed disease ([2]; by 20 weeks of age): 60%
onset/rate of disease relative to control group (CFA alone or OVA peptide in CFA) [2]: developed severe nephritis earlier

H2B10-33: histone 2B protein (H2B) amino acids 10-33
Percent Incidence, Grading of Lupus Nephritis 1+ [3]: 66.6
Percent Incidence, Grading of Lupus Nephritis 2+ [3]: 33.3
survival ([4]; by 26 months age): only one mouse in the H2B10-33 group survived
mice alive ([4]; two months after start of treatment (all controls dead), 300 micrograms i.p. monthly, 18-month old mice): 66.6%
serum anti-dsDNA antibody level ([5]; at 36 weeks of age, control 26±3.2): 14.0±3.2 units
serum anti-dsDNA antibody level ([5]; at the start of treatment (12 weeks), control 5.5±0.3): 7.7±0.9 units
reduction of anti-ssDNA antibody production relative to control group ([6]; T cells from treated mice + B cells from unmanipulated mice): approximately 55%
decrease in anti-dsDNA antibody production relative to control group ([6]; T cells from treated mice + B cells from unmanipulated mice, 7 days): five fold decrease
increase in help for anti-dsDNA antibody production following addition of rIL-2 ([6]; rIL-2 added at beginning of 7-day culture): did not exhibit any increase
incidence of severe nephritis ([7]; at 28 weeks of age, 300 micrograms i.v., four injections at two-week intervals from 12 weeks): did not develop disease
incidence of severe nephritis ([7]; at 36-38 weeks of age, control 88.8%): 33.3%

H355-69: 15-mer nucleosomal histone H3 peptide, positions 55-69 (QKSTELLIRKLPFQR; UniProt P68431 56-70, looked up, fragment)
stimulation of DD2 [8]: stimulated DD2 very weakly

H383-97: H3 peptide used as additional background control, partly within a stimulatory region in H3 (RFQSSAVMALQEACE; UniProt P68431 84-98, looked up, fragment)
stimulation of DD2 [8]: not recognized by any of the T-cell lines or clone DD2
recognition by / response of lupus T cell lines ([9]; short-term lines from 10 lupus patients): not recognized by any of the T-cell lines or clone DD2

H416-30: 15-mer histone H4 peptide, positions 16-30
IL-2 production response, percentage of maximal response stimulated by anti-CD3 mAb ([9]; average of 10 lupus T cell lines, baseline 22%): 23±2.6%

H449-63: histone peptide of H4, positions 49-63 (LIYEETRGVLKVFLE)
HLA class II dependence of peptide presentation ([9]; short-term T cell line L-EB, autologous EBV-B cells, blocking mAb): inhibited mainly by anti-DR mAb

SQKEEEEGAQREKE (Histone fragment) [EP-1]
stimulation of pathogenic Th clones [1]: stimulatory
onset/rate of disease relative to control group (CFA alone or OVA peptide in CFA) [2]: did not result in any increase in the rate of disease

anti-CD3: Anti-CD3 antibody (mAb) produced by hybridoma OKT3, positive control stimulus [reference compound]
IL-2 production by T cell clone DD2 ([8]; background with APC without peptide 132): 554 picograms per milliliter
